Experimental data from patent US10253052B2, “HBED-bisphosphonates, radiometal conjugates and their use as theranostic agents” (Five Eleven Pharma Inc., priority 2015, dated 2019).
Several values for one entry are separate records, joined by “and”; a condition that tells them apart may be missing. Equal entries are not always repeated. Blank lines part the entries; values can stand above or below the molecule they belong to.

How the values were obtained:
[1] = test system: PSMA positive LNCaP cells; assay: Cell uptake in PSMA positive LNCaP cells; assay type: cell-based; conditions: 1 hr incubation at 37° C.
[2] = In vivo biodistribution in mice; parameters: species or system normal CD-1 male mice; conditions: iv
How it was run: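 Normal male CD-1 mice (25-30 g) received 20-30 μCi of ^68Ga-labelled tracer or [^18F]NaF intravenously and were sacrificed at 2, 30, 60 and 120 min. Harvested organs, with tibia and femur as bone, were weighed and gamma-counted; uptake is expressed as % ID/g wet tissue.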

[3] = Micro-PET imaging in normal mice; assay type: in vivo, normal CD-1 male mice; conditions: 15 min scan at 60 min post-injection
Method: [^68Ga]1a, [^68Ga]BPAMD and [^18F]NaF were tested in normal CD-1 male mice. [^68Ga]1g was tested in PSMA expressing LNCaP tumor bearing nude mice. Mice received 300-500 uCi radiotracer through a tail vein injection. PET imaging was performed under isoflurane anaesthesia (2% isoflurane, 1.5 L/min oxygen). The microPET imaging was performed with a small animal PET (Mosaic by Phillips, USA). During PET measurements, the animals were placed in the prone position. At 60 min post injection of the radiotracer, data acquisition was performed for 15 min.

[4] = In vitro binding to hydroxyapatite; conditions: 20 mg hydroxyapatite in saline, 10 min at room temperature
How it was run: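 Hydroxyapatite was pre-incubated 24 h in isotonic saline, then ^68Ga-labelled compound (1 μCi) was added and incubated 10 min at room temperature. After centrifugation and two saline washes, gamma counting of supernatants and solid gave percent ^68Ga bound to hydroxyapatite.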

SMILES: O=C(O)CCC(CP(=O)(O)O)C(=O)O (stereo not shown) [2-PMPA, 2-(phosphonomethyl)pentane-1,5-dioic acid, reference compound]
Blocking of [68Ga]1g cell uptake to PSMA positive LNCaP cells [1]: blocked the cell uptake

bone to blood ratio ([2]; 2 min): 1.9 | bone to muscle ratio ([2]; 2 min): 7.2 | Biodistribution: Blood ([2]; 2 min post injection): 5.56 ± 0.37 % dose/g | Biodistribution: Bone ([2]; 2 min post injection): 10.8 ± 0.51 % dose/g | Biodistribution: Brain ([2]; 2 min post injection): 0.22 ± 0.07 % dose/g | Biodistribution: Heart ([2]; 2 min post injection): 2.80 ± 0.24 % dose/g | Biodistribution: Kidney ([2]; 2 min post injection): 10.4 ± 1.22 % dose/g | Biodistribution: Liver ([2]; 2 min post injection): 2.56 ± 0.24 % dose/g | Biodistribution: Lung ([2]; 2 min post injection): 3.37 ± 0.17 % dose/g | Biodistribution: Muscle ([2]; 2 min post injection): 1.50 ± 0.06 % dose/g | Biodistribution: Pancreas ([2]; 2 min post injection): 1.76 ± 0.07 % dose/g | Biodistribution: Skin ([2]; 2 min post injection): 2.35 ± 0.45 % dose/g | Biodistribution: Spleen ([2]; 2 min post injection): 2.33 ± 0.14 % dose/g | bone to blood ratio ([2]; 30 min): 38 | bone to muscle ratio ([2]; 30 min): 73 | Biodistribution: Blood ([2]; 30 min (0.5 hr) post injection): 0.64 ± 0.08 % dose/g | Biodistribution: Bone ([2]; 30 min (0.5 hr) post injection): 24.2 ± 2.71 % dose/g | Biodistribution: Brain ([2]; 30 min (0.5 hr) post injection): 0.10 ± 0.02 % dose/g | Biodistribution: Heart ([2]; 30 min (0.5 hr) post injection): 0.96 ± 0.23 % dose/g | Biodistribution: Kidney ([2]; 30 min (0.5 hr) post injection): 1.70 ± 0.62 % dose/g | Biodistribution: Liver ([2]; 30 min (0.5 hr) post injection): 0.65 ± 0.17 % dose/g | Biodistribution: Lung ([2]; 30 min (0.5 hr) post injection): 0.55 ± 0.11 % dose/g | Biodistribution: Muscle ([2]; 30 min (0.5 hr) post injection): 0.33 ± 0.11 % dose/g | Biodistribution: Pancreas ([2]; 30 min (0.5 hr) post injection): 0.42 ± 0.27 % dose/g | Biodistribution: Skin ([2]; 30 min (0.5 hr) post injection): 0.51 ± 0.11 % dose/g | Biodistribution: Spleen ([2]; 30 min (0.5 hr) post injection): 0.93 ± 0.56 % dose/g | bone to blood ratio ([2]; 60 min): 161 | bone to muscle ratio ([2]; 60 min): 291 and 281 | Biodistribution: Blood ([2]; 60 min (1 hr) post injection): 0.15 ± 0.01 % dose/g | Biodistribution: Brain ([2]; 60 min (1 hr) post injection): 0.06 ± 0.01 % dose/g | Biodistribution: Heart ([2]; 60 min (1 hr) post injection): 0.18 ± 0.02 % dose/g | Biodistribution: Kidney ([2]; 60 min (1 hr) post injection): 0.68 ± 0.36 % dose/g | Biodistribution: Liver ([2]; 60 min (1 hr) post injection): 0.13 ± 0.01 % dose/g | Biodistribution: Lung ([2]; 60 min (1 hr) post injection): 0.14 ± 0.01 % dose/g | Biodistribution: Muscle ([2]; 60 min (1 hr) post injection): 0.09 ± 0.02 % dose/g | Biodistribution: Pancreas ([2]; 60 min (1 hr) post injection): 0.07 ± 0.00 % dose/g | Biodistribution: Skin ([2]; 60 min (1 hr) post injection): 0.11 ± 0.02 % dose/g | Biodistribution: Spleen ([2]; 60 min (1 hr) post injection): 0.12 ± 0.02 % dose/g | bone to blood ratio ([2]; 120 min): 760 | bone to muscle ratio ([2]; 120 min): 593 | Biodistribution: Blood ([2]; 120 min post injection): 0.03 ± 0.00 % dose/g | Biodistribution: Bone ([2]; 120 min post injection): 25.2 ± 3.89 % dose/g | Biodistribution: Brain ([2]; 120 min post injection): 0.04 ± 0.00 % dose/g | Biodistribution: Heart ([2]; 120 min post injection): 0.04 ± 0.00 % dose/g | Biodistribution: Kidney ([2]; 120 min post injection): 0.57 ± 0.43 % dose/g | Biodistribution: Liver ([2]; 120 min post injection): 0.03 ± 0.01 % dose/g | Biodistribution: Lung ([2]; 120 min post injection): 0.04 ± 0.01 % dose/g | Biodistribution: Muscle ([2]; 120 min post injection): 0.04 ± 0.04 % dose/g | Biodistribution: Pancreas ([2]; 120 min post injection): 0.02 ± 0.00 % dose/g | Biodistribution: Skin ([2]; 120 min post injection): 0.03 ± 0.00 % dose/g | Biodistribution: Spleen ([2]; 120 min post injection): 0.03 ± 0.01 % dose/g | Hydroxyapatite Binding (%) [4]: 78.4 ± 3.9%
SMILES: [18F-].[Na+] [[^18F]NaF, reference compound]
Biodistribution: Bone ([2]; 60 min (1 hr) post injection): 24.6±3.2 % dose/g and 24.6 ± 3.18 % dose/g | Micro-PET localization (in words) [3]: localized in the spines of mice
